Assay results taken from US7566718B2, “Amine-linked pyridyl and phenyl substituted piperazine-piperidines with CXCR3 antagonist activity” (Schering Corporation, priority 2005, dated 2009).

What follows are compounds tested against T1, human CXCR3 (N-delta 4) (Homo sapiens, UniProt P49682) (assay: Human CXCR3 (N-delta 4) scintillation proximity assay (SPA), [125I] IP-10 binding to Ba/F3-hCXCR3 membranes). Conditions: IC50 rating; [125I] IP-10 displacement, human CXCR3; read-out: IC50.
T1 construct: CD8 leader (N); Flag tag; expressed in transfected cells; membrane preparation
T1 sequence (P49682 5-368 limits assumed): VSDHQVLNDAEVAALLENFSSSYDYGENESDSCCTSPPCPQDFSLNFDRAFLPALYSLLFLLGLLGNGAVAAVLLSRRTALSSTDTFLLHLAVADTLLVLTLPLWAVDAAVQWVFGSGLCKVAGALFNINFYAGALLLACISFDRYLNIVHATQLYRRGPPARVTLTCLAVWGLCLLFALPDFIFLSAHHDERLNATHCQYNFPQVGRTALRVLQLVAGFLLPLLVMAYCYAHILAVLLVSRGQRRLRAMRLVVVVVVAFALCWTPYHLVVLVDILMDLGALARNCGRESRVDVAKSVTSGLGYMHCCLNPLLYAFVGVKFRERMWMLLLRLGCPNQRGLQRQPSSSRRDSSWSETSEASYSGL
Method in brief: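 Membranes from Ba/F3 cells expressing Flag-tagged hCXCR3 (N-delta 4), 2 μg/point, precoupled to WGA SPA beads. Binding of 25 pM [125I] IP-10 measured with titrated compounds, 3 hr at room temperature, in HEPES buffer with CaCl2, MgCl2, NaCl and 1.0% BSA; bound tracer read by scintillation counting.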

IC50 [nM]	SMILES
> 100	CC[C@H]1CN(c2ncc(NC3=NS(=O)(=O)N=C3NCC(C)(C)C)cc2Cl)CCN1C1CCN(Cc2ccc(Cl)cc2C#N)CC1 [Compound 278]
< 25	CC[C@H]1CN(c2ncc(Nc3c(NC4CC4)c(=O)c3=O)cc2Cl)CCN1C1CCN(Cc2ccc(Cl)cc2C(=O)OC)CC1 [Compound 91]
25 to 100	CC[C@H]1CN(c2ncc(N/C(N)=N/C#N)cc2Cl)CCN1C1CCN(Cc2ccc(Cl)cc2F)CC1 [Compound 208]
> 100	C[C@@H]1CN(c2ncc(Nc3c(NCC(F)(F)F)c(=O)c3=O)cc2Cl)[C@@H](C)CN1C1CCN(Cc2ccccc2Cl)CC1 [Compound 155]
> 100	CC[C@H]1CN(c2ncc(NS(C)(=O)=O)cc2Cl)CCN1C1CCN(Cc2ccc(Cl)cc2NS(C)(=O)=O)CC1 [Compound 52]
< 25	C[C@@H]1CN(C2CCN(Cc3ccc(Cl)cc3F)CC2)[C@@H](C)CN1c1ncc(Nc2c(NC3CC3)c(=O)c2=O)cc1Cl [Compound 90]
< 25	CC[C@H]1CN(c2ncc(Nc3c(NC4CCC4)c(=O)c3=O)cc2Cl)CCN1C1CCN(Cc2ccc(Cl)cc2F)CC1 [Compound 87]
< 25	CC[C@H]1CN(c2ncc(NS(C)(=O)=O)cc2Cl)CCN1C1CCN(Cc2ccc(Cl)cc2NC)CC1 [Compound 14]
> 100	C[C@@H]1CN(C2CCN(Cc3ccc(Cl)cc3F)CC2)[C@@H](C)CN1c1ncc([N+](=O)[O-])cc1Cl [Compound 217]
> 100	CC(C)C1CCC(N2CCC(N3C[C@H](C)N(c4ncc(Nc5c(NCC(F)(F)F)c(=O)c5=O)cc4Cl)C[C@H]3C)CC2)CC1 (stereo partly shown) [Compound 127]
